{"source": "ChEMBL document CHEMBL5500381", "about": "“Antiviral drug discovery: Pyrimidine entry inhibitors for Zika and dengue viruses” (Eur J Med Chem, 2024)", "key": {"[1]": {"tested_on": "dengue virus type 2", "experiment": "Anti-viral activity against DENV-2 Thailand/16681/1984 strain infected in african green monkey Vero cells at 0.1 MOI assessed as reduction in fluorescence at 10 uM measured for 10 to 12 hrs by plaque assay", "type": "functional, organism-based", "conditions": "time 10-12 hrs"}, "[2]": {"tested_on": "Zika virus", "experiment": "Anti-viral activity against ZIKV Argentine strain INEVH116141 infected in african green monkey Vero cells at 0.1 MOI assessed as reduction in virus yield measured after 48 hrs by virus reduction assay", "type": "functional, organism-based"}, "[3]": {"experiment": "Metabolic stability in mouse liver microsomes assessed as half life at 3 uM in presence of NADPH by HPLC-MS analysis", "type": "ADME, Microsome"}, "[4]": {"experiment": "Solubility of the compound in phosphate-buffered saline solution (PBS,pH 7.4) incubated for 24 hrs by shake-flask method", "type": "physicochemical"}, "[5]": {"tested_on": "dengue virus type 2", "experiment": "Anti-viral activity against DENV-2 Thailand/16681/1984 strain infected in african green monkey Vero cells at 0.1 MOI assessed as reduction in virus yield measured after 48 hrs by virus reduction assay", "type": "functional, organism-based", "conditions": "Thailand/16681/1984, Vero"}, "[6]": {"experiment": "Selectivity index, ratio of CC50 for cytotoxicity against African green monkey Vero cells to EC50 for anti-viral activity against DENV-2 Thailand/16681/1984 strain", "type": "toxicity, cell-based", "conditions": "read-out: Selectivity Index"}, "[7]": {"tested_on": "dengue virus type 2", "experiment": "Anti-viral activity against DENV-2 Thailand/16681/1984 strain infected in African green monkey Vero cells at 0.1 MOI assessed as reduction in viral titer at 10 uM pre-treated for 2 hrs before cellular infection followed by infection 1 hr incubated with compound free culture medium for 48 hrs", "type": "functional, organism-based"}, "[8]": {"tested_on": "Zika virus", "experiment": "Virucidal effect in ZIKV Argentine strain INEVH116141 strain assessed as inactivation of virus at 2.5 to 10 uM measured after 1.5 hrs incubation by viral inactivation assay", "type": "functional, organism-based", "conditions": "dose 2.5-10 µM"}, "[9]": {"tested_on": "dengue virus type 2", "experiment": "Inhibition of DENV-2 Thailand/16681/1984 strain infection in African green monkey Vero cells assessed as internalization (INT) treated after 1 hr post infection measured after 24 to 48 hrs", "type": "functional", "conditions": "time 24-48 hrs"}, "[10]": {"experiment": "Solubility of the compound in simulated intestinal fluid (SIF,pH 6.8) incubated for 24 hrs by shake-flask method", "type": "ADME"}, "[11]": {"experiment": "Plasma stability in human plasma measured at 4 hrs", "type": "ADME, cell-free"}, "[12]": {"tested_on": "Zika virus", "experiment": "Inhibition of ZIKV Argentine strain INEVH116141 infection in African green monkey Vero cells assessed as internalization (INT) treated after 1 hr post infection measured after 48 hrs", "type": "functional"}, "[13]": {"tested_on": "Zika virus", "experiment": "Anti-viral activity against ZIKV Argentine strain INEVH116141 infected in african green monkey Vero cells at 0.1 MOI assessed as reduction in […] at 10 uM measured for first 8 hrs by plaque assay", "type": "functional, organism-based"}, "[14]": {"tested_on": "dengue virus type 2", "experiment": "Anti-viral activity against DENV-2 Thailand/16681/1984 strain infected in African green monkey Vero cells at 0.1 MOI assessed as reduction in viral titer at 10 uM pre-treated for 4 hrs before cellular infection followed by infection 1 hr incubated with compound free culture medium for 48 hrs", "type": "functional, organism-based"}, "[15]": {"tested_on": "Zika virus", "experiment": "Inhibition of ZIKV Argentine strain INEVH116141 infection in African green monkey Vero cells assessed as post-internalization (Post-INT) treated after 2 hr post infection measured after 24 hrs", "type": "functional"}, "[16]": {"experiment": "Metabolic stability in mouse liver microsomes assessed as intrinsic clearance at 3 uM in presence of NADPH by HPLC-MS analysis", "type": "ADME, Microsome"}, "[17]": {"tested_on": "Zika virus", "experiment": "Anti-viral activity against ZIKV Argentine strain INEVH116141 infected in african green monkey Vero cells at 0.1 MOI assessed as reduction in […] at 10 uM measured for 10 to 12 hrs by plaque assay", "type": "functional, organism-based", "conditions": "time 10-12 hrs"}, "[18]": {"tested_on": "Zika virus", "experiment": "Anti-viral activity against ZIKV Argentine strain INEVH116141 infected in african green monkey Vero cells at 0.1 MOI assessed as reduction in […] at 10 uM measured after 48 hrs by epifluorescence microscopy", "type": "functional, organism-based"}, "[19]": {"tested_on": "dengue virus type 2", "experiment": "Inhibition of DENV-2 Thailand/16681/1984 strain infection in African green monkey Vero cells assessed as absorption treated with compound for 1 hr during infection at 4 degC", "type": "functional, organism-based"}, "[20]": {"tested_on": "Zika virus", "experiment": "Anti-viral activity against ZIKV Argentine strain INEVH116141 infected in African green monkey Vero cells at 0.1 MOI assessed as reduction in viral titer at 10 uM pre-treated for 4 hrs before cellular infection followed by infection 1 hr incubated with compound free culture medium for 48 hrs", "type": "functional, organism-based"}, "[21]": {"tested_on": "dengue virus type 2", "experiment": "Anti-viral activity against DENV-2 Thailand/16681/1984 strain infected in african green monkey Vero cells at 0.1 MOI assessed as reduction in fluorescence at 10 uM measured for first 8 hrs by plaque assay", "type": "functional, organism-based"}, "[22]": {"tested_on": "dengue virus type 2", "experiment": "Inhibition of DENV-2 Thailand/16681/1984 strain infection in African green monkey Vero cells assessed as post-internalization (Post-INT) treated after 2 hr post infection measured after 24 hrs", "type": "functional"}, "[23]": {"tested_on": "dengue virus type 2", "experiment": "Anti-viral activity against DENV-2 Thailand/16681/1984 strain infected in african green monkey Vero cells at 0.1 MOI assessed as reduction in fluorescence at 10 uM measured after 48 hrs by epifluorescence microscopy", "type": "functional, organism-based"}, "[24]": {"tested_on": "Zika virus", "experiment": "Inhibition of ZIKV Argentine strain INEVH116141 infection in African green monkey Vero cells assessed as post-internalization (Post-INT) treated after 2 hr post infection measured after 48 hrs", "type": "functional"}, "[25]": {"tested_on": "Zika virus", "experiment": "Inhibition of ZIKV Argentine strain INEVH116141 infection in African green monkey Vero cells assessed as absorption treated with compound for 1 hr during infection at 4 degC", "type": "functional, organism-based"}, "[26]": {"experiment": "Permeability of the compound by PAMPA assay", "type": "ADME"}, "[27]": {"tested_on": "Zika virus", "experiment": "Anti-viral activity against ZIKV Argentine strain INEVH116141 infected in African green monkey Vero cells at 0.1 MOI assessed as reduction in viral titer at 10 uM pre-treated for 2 hrs before cellular infection followed by infection 1 hr incubated with compound free culture medium for 48 hrs", "type": "functional, organism-based"}, "[28]": {"experiment": "Cytotoxicity against African green monkey Vero cells assessed as cell viability measured after 72 hrs by MTT assay", "type": "toxicity, cell-based", "conditions": "chlorocebus sabaeus"}, "[29]": {"experiment": "Selectivity index, ratio of CC50 for cytotoxicity against African green monkey Vero cells to EC50 for anti-viral activity against ZIKV Argentine strain INEVH116141", "type": "toxicity, cell-based", "conditions": "read-out: Selectivity Index"}, "[30]": {"tested_on": "Zika virus", "experiment": "Inhibition of ZIKV Argentine strain INEVH116141 infection in African green monkey Vero cells assessed as internalization (INT) treated after 1 hr post infection measured after 24 hrs", "type": "functional"}, "[31]": {"tested_on": "dengue virus type 2", "experiment": "Anti-viral activity against DENV-2 Thailand/16681/1984 strain infected in african green monkey Vero cells assessed as reduction in genome level at 10 uM measured after 48 hrs by QRT-PCR analysis", "type": "functional, organism-based"}, "[32]": {"experiment": "Metabolic stability in mouse liver microsomes assessed as degradation at 3 uM in presence of NADPH measured upto 45 mins by HPLC-MS analysis", "type": "ADME, Microsome", "conditions": "read-out: CLH"}, "[33]": {"tested_on": "Zika virus", "experiment": "Anti-viral activity against ZIKV Argentine strain INEVH116141 infected in african green monkey Vero cells assessed as reduction in genome level at 10 uM measured after 48 hrs by QRT-PCR analysis", "type": "functional, organism-based"}, "[34]": {"tested_on": "dengue virus type 2", "experiment": "Virucidal effect in DENV-2 Thailand/16681/1984 strain assessed as inactivation of virus at 2.5 to 10 uM measured after 1.5 hrs incubation by viral inactivation assay", "type": "functional, organism-based", "conditions": "dose 2.5-10 µM"}, "[35]": {"experiment": "Plasma stability in human plasma measured after 24 hrs relative to control", "type": "ADME, cell-free", "conditions": "read-out: Activity"}, "[36]": {"experiment": "Plasma stability in mouse plasma measured at 4 hrs", "type": "ADME, cell-free"}, "[37]": {"experiment": "Solubility of the compound in simulated gastric fluid (SGF,pH 1.2) incubated for 24 hrs by shake-flask method", "type": "ADME"}, "[38]": {"tested_on": "dengue virus type 2", "experiment": "Inhibition of DENV-2 Thailand/16681/1984 strain infection in African green monkey Vero cells assessed as post-internalization (Post-INT) treated after 2 hr post infection measured after 48 hrs", "type": "functional"}}, "note": "Calls of active or inactive are those of the source. The rule behind the calls is not given here.", "data": [{"molecule": "FC(F)(F)c1cc(NCc2ccc(Cl)cc2)nc(NCCN2CCCCC2)n1", "values": [{"measurement": "Activity", "setting": "[1]", "value": "Active"}, {"measurement": "EC50", "setting": "[2]", "value": 2610, "unit": "nM"}, {"measurement": "half-life at 3 µM", "setting": "[3]", "value": 8.6, "unit": "min"}, {"measurement": "solubility thermodynamic at 24 h", "setting": "[4]", "value": 507, "unit": "µg/mL"}, {"measurement": "EC50", "setting": "[5]", "value": 1160, "unit": "nM"}, {"measurement": "selectivity ratio", "setting": "[6]", "value": 20.5}, {"measurement": "Activity", "setting": "[7]", "value": "Active"}, {"measurement": "Activity", "setting": "[8]", "value": "inactive"}, {"measurement": "inhibition (INH)", "setting": "[9]", "value": "<50", "unit": "%"}, {"measurement": "solubility thermodynamic at 24 h", "setting": "[10]", "value": 1690, "unit": "µg/mL"}, {"measurement": "Stability", "setting": "[11]", "value": "Stable"}, {"measurement": "inhibition (INH)", "setting": "[12]", "value": 29.22, "unit": "%"}, {"measurement": "Activity", "setting": "[13]", "value": "Active"}, {"measurement": "Activity", "setting": "[14]", "value": "Active"}, {"measurement": "inhibition (INH)", "setting": "[15]", "value": 44.86, "unit": "%"}, {"measurement": "CLH", "setting": "[16]", "value": 179, "unit": "µL/min"}, {"measurement": "Activity", "setting": "[17]", "value": "Active"}, {"measurement": "Activity", "setting": "[18]", "value": "Active"}, {"measurement": "inhibition", "setting": "[19]", "value": "inactive"}, {"measurement": "Activity", "setting": "[20]", "value": "Active"}, {"measurement": "Activity", "setting": "[21]", "value": "Active"}, {"measurement": "inhibition (INH)", "setting": "[22]", "value": 73.2, "unit": "%"}, {"measurement": "Activity", "setting": "[23]", "value": "Active"}, {"measurement": "inhibition (INH)", "setting": "[24]", "value": 43.7, "unit": "%"}, {"measurement": "inhibition", "setting": "[25]", "value": "inactive"}, {"measurement": "permeability", "setting": "[26]", "value": "Permeable"}, {"measurement": "Activity", "setting": "[27]", "value": "inactive"}, {"measurement": "CC50 at 72 h", "setting": "[28]", "value": 23800, "unit": "nM"}, {"measurement": "selectivity ratio", "setting": "[29]", "value": 9.13}, {"measurement": "inhibition (INH)", "setting": "[30]", "value": 26.36, "unit": "%"}, {"measurement": "Activity", "setting": "[31]", "value": "Active"}, {"measurement": "microsomal CLint at 3 µM", "setting": "[32]", "value": 179, "unit": "µL/min/mg"}, {"measurement": "Activity", "setting": "[33]", "value": "Active"}, {"measurement": "Activity", "setting": "[34]", "value": "inactive"}, {"measurement": "remaining at 24 h", "setting": "[35]", "value": 20, "unit": "%"}, {"measurement": "Stability", "setting": "[36]", "value": "Stable"}, {"measurement": "solubility thermodynamic at 24 h", "setting": "[37]", "value": 76, "unit": "µg/mL"}, {"measurement": "inhibition (INH)", "setting": "[38]", "value": 85.52, "unit": "%"}]}]}
